# Experiments:
# PCNA and Stathmin genes = assay: In vivo renal ischemia-reperfusion: real-time RT-PCR of regeneration markers PCNA and Stathmin in kidney; design: species or system Swiss strain mice; conditions: FIG. 1
# Method: (§1) Swiss strain mice were used, males with an approximate weight of 25-30 g (Charles River, France). All the procedures were performed under the supervision of the ethics committee of the Institute for Biomedical Research of Barcelona (CSIC) and followed European Union guidelines. The environmental conditions were kept constant, the temperature was 21-22° C., the relative humidity was 70% and the alternative cycles of light/darkness were 12 h. The animals were fed a standard diet of AO4 fodder (Panlab, Barcelona) and water from the Barcelona supply network ad libitum.
# The animals were anaesthesised with Isoflurane, placed in the supine position, and their body temperature was maintained at between 36° C. and 37° C. After performing a median laparotomy to access the kidney, carefully putting aside the intestinal packet, bilateral ischemia was induced by clamping both renal arterio-venous pedicles with a non-traumatic microvascular clamp for 45 minutes. Subsequently, the reperfusion period was started, with removal of the clamp, and it was visually verified by observing the return of the blood flow to the kidney. Subsequently, the animal was sutured and administered subcutaneous Buprex (4.16 μg/100 g of weight).
# Animals subjected to a sham operation were used as controls. During the entire operation process, the animals were well hydrated and the body temperature was maintained at about 37° C. During the reperfusion time, the animals were stabulated under the control of a veterinary. […]
# (§2) The RNA of the kidney samples was extracted by means of the TRIzol reagent in accordance with the manufacturer's instructions (Invitrogen, Barcelona). […] The RNA concentrations were calculated by determining the absorbance at 260 nm. The integrity of the RNA thus obtained was examined by analysing the 18s and 28s ribosomal RNA bands detected and analysed in the Bioanalyzer of the Clinical Hospital of Barcelona (Agilent).
# The expression of the analysed genes was measured by means of real-time quantitative RT-PCR normalised with the glyceraldehyde 3-phosphate dehydrogenase (GAPDH) housekeeping gene. […]
# Erythropoietin (EPO) = assay: In vivo renal ischemia-reperfusion: Western Blot for EPO in renal tissue; design: species or system Swiss strain mice; conditions: vs I/R, FIG. 3
# Method: as §1
# (§3) The animals were anaesthesised with Isoflurane, placed in the supine position, and their body temperature was maintained at between 36° C. and 37° C. […]
# The renal tissue samples were homogenised in lysis buffer (70 mM sucrose, 2 mM Hepes KOH, 220 mM Mannitol, 0.1 mM EGTA, 1 mM PMSF, 0.1 mM BSA, antiproteases cocktail (SIGMA)); subsequently, the protein concentration thereof was determined. The proteins were determined by means of the Bradford colorimetric method with a commercial reagent from BioRad.
# 50 μg of protein for each of the groups to be analysed were placed in each well of the 12% acrylamide gel. […]
# [1] = tested on: Proximal tubular epithelial cells from rats (NRK52e); assay: In vitro cisplatin-induced damage of renal tubular cells: apoptosis evaluated by activity of caspase 3; assay type: cell-based; conditions: cisplatin+CAII group: NRK52e, cisplatin 200 μM 6 h, then 10 μg/ml CAII 16 h; vs cisplatin; FIG. 5
# Method: (§4) Proximal tubular epithelial cells from rats (NRK52e) were kept in culture bottles (75 cm^2), with a culture medium (DMEM) whereto 17.5 mM of glucose and 2.5 mM of glutamine were added; this medium was also supplemented with antibiotics (100 units/ml of penicillin and 100 μg/ml of streptomycin) and 10% foetal calf serum (FCS). The cells were incubated in a humidified atmosphere with 5% CO2 at 37° C.
# (§5) The control cells (control) were collected when they reached confluence without any treatment.
# Treatment with cisplatin (Sigma) was performed by dissolving the drug in the minimum volume of DMSO (40 μl) and diluting it in PBS at a concentration of 200 μM. […]
# (§6) The activity of caspase-3 was determined by measuring the proteolysis of the specific substrate (N-acetyl-Asp-Glu-Val-Asp-7-amino-4-methyl coumarin (DEVD-AMC; Biomol, Plymouth Meeting, Pa.). The cell culture samples were homogenised and sonicated in the assay buffer (50 mM HEPES, 10% sucrose, 0.1% CHAPS, 5 mM GSSG, 5 mM DTT). The supernatants of the sample were incubated in this buffer, whereto DEVD-AMC at a concentration of 50 μM was added. The AMC released was quantified for 1 hour and a half at 37° C. by means of fluorospectrophotometry, using 380 nm of excitation and measuring the emission at 450 nm.
# caspase 3 = assay: In vivo renal ischemia-reperfusion: apoptosis evaluated by activity of caspase 3 in renal tissue; design: species or system Swiss strain mice; conditions: FIG. 2
# Method: as §1, §3
# as §6, with “The renal tissue” for “The cell culture”, “the samples” for “the sample”, “by” for “by means of”
# [2] = tested on: Proximal tubular epithelial cells from rats (NRK52e); assay: In vitro cisplatin-induced damage of renal tubular cells: real-time RT-PCR of PCNA and Ki67; assay type: cell-based; conditions: cis+CAII group: NRK52e, cisplatin 200 μM 6 h, then 10 μg/ml CAII 16 h; vs cis; FIG. 4
# Method: as §4, §5
# Treatment with cisplatin (Sigma) was performed by dissolving the drug in the minimum volume of DMSO (40 μl) and diluting it in PBS at a concentration of 200 μM. After 6 hours, the medium was removed and a new medium was added, without the drug for the CIS group and with 10 μg/ml of CAII for the CIS+CAII group. The samples were collected 16 hours later. […]
# as §2, with “the” for “the kidney”, “samples taken from the cell culture” for “samples”, “using” for “by means of”
# The expression of the analysed genes was measured by means of real-time quantitative RT-PCR normalised with GAPDH. […]
# [3] = I/R+AZT group: Azetazolamide 30 mg/kg intraperitoneal one day prior to I/R
Compound,regenerative markers (PCNA and Stathmin mRNA) (PCNA and Stathmin genes; [3]),amount of EPO in kidney (Western Blot) (Erythropoietin (EPO); [3]),"regenerative response (expression of PCNA and Stathmin mRNA) (PCNA and Stathmin genes; I/R+CAII group: 45 min ischemia, 24 h reperfusion, CAII 5 mg/kg into inferior vena cava at beginning of reperfusion, vs I/R)","regeneration (PCNA and Stathmin mRNA) in undamaged tissue (PCNA and Stathmin genes; control+CAII group: no I/R, CAII 5 mg/kg intravenous 24 h prior to sample collection)",apoptosis (activity of caspase 3) [1],"incidence of apoptosis (activity of caspase 3) (caspase 3; I/R+CAII group: CAII 5 mg/kg at beginning of reperfusion, vs I/R)","apoptosis naturally present in healthy tissue (activity of caspase 3) (caspase 3; control+CAII group: no I/R, CAII 5 mg/kg intravenous)",amount of EPO in kidney (Western Blot) (Erythropoietin (EPO); I/R+CAII group: CAII 5 mg/kg at beginning of reperfusion),regeneration (expression of PCNA and Ki67 mRNA) [2]
"CC(=O)Nc1nnc(S(N)(=O)=O)s1 [azetazolamide, Azetazolamide, reference compound]",decrease,reduced the amount of EPO,–,–,–,–,–,–,–
carbonic anhydrase II [CAII],–,–,marked increase,did not induce regeneration,capable of reverting apoptosis,drastically reduced,does not affect,marked increase,significantly increased regeneration

# Reference: US20130101565A1, “USE OF CARBONIC ANHYDRASE II FOR PRODUCING A DRUG” (CONSEJO SUPERIOR DE INVESTIGACIONES CIENTIFICAS (CSIC), priority 2009, published 2013)
